Test results from PubChem BioAssay AID2305 (GlaxoSmithKline (GSK), 2010).

The molecules below were run on P. falciparum 3D7 growth, pLDH absorbance (assay: P. falciparum 3D7 growth inhibition, dose response, strain 3D7 (AID 2305)).

Row | SMILES | IC50
1 | COCCCNC(=O)[C@H]1CNCCN1C(=O)c1ccccc1 | 800 nM
2 | O=[N+]([O-])c1ccc(Nc2nc(NCc3ccccc3)nc(NN=Cc3ccccc3[N+](=O)[O-])n2)cc1 | 160 nM
3 | O=C(/C=C/c1ccc2ccccc2c1)NCC1(c2ccc(-c3ccccc3)cc2)CCOCC1 | 1520 nM
4 | CN(C)c1ccc(CN2CCC(CNC(=O)c3cc(-c4cccc(F)c4)cs3)C2)cc1 (stereo not drawn) | 1020 nM
5 | N#Cc1cc(C(=O)c2cc(Cl)ccc2O)cn(-c2cc(Cl)cc(Cl)c2)c1=O | 850 nM
6 | CCn1nc(C(=O)NC2CCOc3ccccc32)c2ccccc2c1=O (stereo not drawn) | 1230 nM
7 | Fc1ccc2nc(-c3cccc(-c4ccc(CN5CCN(CCN6CCOCC6)CC5)cc4)c3)[nH]c2c1 | 310 nM
8 | Cc1ccccc1N1CCN(c2ccc(C(=O)NC(C)C)cn2)CC1 | 900 nM
9 | CCCCNCC(O)COc1ccccc1-c1ccc(N/N=C/c2cccc3ccccc23)nn1 (stereo not drawn) | 890 nM
10 | CC(=O)Oc1cc(C(=O)Nc2ccc(Cl)cc2)cc2ccccc12 | 860 nM
11 | COc1cc(Br)c(S(=O)(=O)n2cc(CN3CCC(N)CC3)c3cc(Cl)ccc32)cc1OC | 990 nM
12 | CC(=O)Nc1nc(C(=O)Nc2cccc(-c3cccc(-c4nc5ccc(F)cc5[nH]4)c3)c2)cs1 | 90 nM
13 | O=C(/C=C/c1ccc(Cl)cc1Cl)NCCCCCN1CCC(c2c[nH]c3ccccc23)CC1 | 940 nM
14 | COc1ccc(NC(=O)C2CCN(CCCCCNC(=O)/C=C/c3ccc(Cl)c(Cl)c3)CC2)cc1 | 830 nM
15 | CC(C)N1CCC(NC(=O)N2CCCN(c3ncnc4cc(-c5ccc(Cl)cc5)sc34)CC2)CC1 | 1940 nM
16 | O=C(NC1CCN(c2ccnc(Nc3ccc(F)cc3)n2)C1)c1cc2ccccc2s1 (stereo not drawn) | 720 nM
17 | Cc1ccc(Nc2nc(NN=Cc3cc4c(cc3Br)OCO4)nc(Nc3ccc([N+](=O)[O-])cc3)n2)cc1C | 750 nM
18 | CCOC(=O)Nc1cc(-c2csc(N=C(N)N)n2)cc([N+](=O)[O-])c1 | 820 nM
19 | O=C(NOCCCCOc1ccc(Cl)c(Cl)c1)c1ccccc1 | 180 nM
20 | CCOc1cc(C(=O)NC2CCN(Cc3ccccc3)CC2)ccc1-c1nc2cc(Cl)c(F)cc2[nH]1 | 800 nM
21 | Cc1c(C2CCN(CCCCNC(=O)c3ccc(-c4ccc(C#N)cc4)cc3)CC2)c2ccccc2n1CCO | 1000 nM
22 | Cc1[nH]c(C)c(-c2ccc(Oc3ccc(C(F)(F)F)cc3)cc2)c(=O)c1Br | 210 nM
23 | O=C(Cn1c(CCc2cccc(F)c2F)cc(=O)c2ccccc21)N(Cc1ccc(-c2ccc(C(F)(F)F)cc2)cc1)C1CCN(CCO)CC1 | 1320 nM
24 | O=C(Nc1ccc(-c2ccccc2)s1)N[C@H]1CCN(Cc2ccc(OCCCN3CCCCC3)cc2)C1 | 740 nM
25 | O=C(CC1NC(=O)c2ccccc21)Nc1ccc(-c2cccc(-c3nc4ccc(C(F)(F)F)cc4[nH]3)c2)cc1 (stereo not drawn) | 960 nM

Row | SMILES | IC50
26 | CCN(CCO)CCc1cccc(Nc2nccc(-c3c(-c4ccc(NC(=O)N(CC)CC)cc4)nn4ccccc34)n2)c1 | 1110 nM
27 | CC(C)CNCc1cccc(-c2cccc(CN(CCCN3CCN(C)CC3)C(=O)NC3CCCCC3)c2)c1 | 760 nM
28 | O=C(/C=C/c1ccc(Cl)c(Cl)c1)NC1CCC(CN2CCC(c3cc4ccccc4[nH]3)CC2)CC1 (stereo not drawn) | 990 nM
29 | CCOc1ccc(C2CCN(CCN3CCC(NC(=O)c4ccc(-c5ccc(C(F)(F)F)cc5)cc4)CC3)CC2)c(OCC2CC2)c1 | 830 nM
30 | COc1cc(C(=O)NCCCN2CCN(c3cccc(Cl)c3)CC2)ccc1-c1nc2cc(Cl)c(F)cc2[nH]1 | 1020 nM
31 | Cc1cc(N[C@@H](CC(C)C)C(=O)NCCOc2ccccc2)nc(NCCc2ccccc2)n1 | 1510 nM
32 | COc1ccc2ncc(F)c(NC(=O)C3CCC(NCc4cc5c(F)cccc5[nH]4)CC3)c2n1 (stereo not drawn) | 1090 nM
33 | CCc1ccc(OCc2ccccc2C(=O)Nc2ccc3nc(C)cc(N)c3c2)cc1 | 200 nM
34 | Cc1ccccc1CNc1noc(-c2c(F)cccc2Cl)n1 | 720 nM
35 | N#Cc1c(N2CCN(c3ccc(F)cc3)CC2)nc(N)c2c(N)nc3c(c12)CC(=O)N3C1CC1 | 840 nM
36 | CC(=O)N1N=C(c2[nH]c3ccc(Br)cc3c2C)OC1c1ccccc1 (stereo not drawn) | 780 nM
37 | O=C(Nc1cccc(-c2ccc(-c3nc4ccc(C(F)(F)F)cc4[nH]3)s2)c1)c1cnc[nH]1 | 1110 nM
38 | Cc1ccccc1C1CCN(C2CCC(NC(=O)/C=C/c3ccc(C(F)(F)F)cc3)CC2)CC1 (stereo not drawn) | 1040 nM
39 | Clc1cc(Cl)c2c(c1)C(NCCCNc1nc3ccccc3[nH]1)CCO2 (stereo not drawn) | 330 nM
40 | O=C(Nc1ccc(Cl)cc1C(=O)Nc1ccncc1)c1ccc(Cl)cc1Cl | 610 nM
41 | COc1ccc2ncc(F)c(CCN3[C@@H]4CC[C@H]3CC(NCc3cc5c(cn3)OCS5)C4)c2n1 (stereo partly drawn) | 920 nM
42 | COc1ccccc1CCNc1nc(C)cc(N[C@@H](Cc2ccccc2)C(=O)NCc2cccc(F)c2)n1 | 870 nM
43 | c1cncc(CN2CCN(Cc3ccc(-c4ccc(-c5nc6ccccc6[nH]5)s4)cc3)CC2)c1 | 940 nM
44 | S=C(NCCCCCN1CCC(c2c[nH]c3ccccc23)CC1)Nc1cc(Cl)cc(Cl)c1 | 870 nM
45 | CC(C)CCNCc1ccc(OCc2cccc(C(=O)Nc3ccccc3)c2)c(I)c1 | 290 nM
46 | COc1ccc(CNCC(C)(C)c2nc(-c3ccc(Cl)c(O)c3)c(-c3ccncc3)[nH]2)cc1 | 360 nM
47 | CCN(CC)CCN1C(=O)C(O)(c2ccccc2Cl)c2c1cc(C#N)cc2C(F)(F)F (stereo not drawn) | 950 nM
48 | COc1ccc2nc(C)cc(Nc3ccc(Cl)c(Cl)c3)c2c1 | 440 nM
49 | CC(CNc1nc(NCC(c2ccccc2)c2ccccc2)c2[nH]cnc2n1)c1ccccc1 (stereo not drawn) | 950 nM
50 | Cc1cc(NCCc2cccc(F)c2)nc(/N=C(\N)Nc2cccc(C(F)(F)F)c2)n1 | 150 nM

Row | SMILES | IC50
51 | CO/C(=C\C=C\c1cc2cc(Cl)c(Cl)cc2[nH]1)C(=O)NC1C[C@H]2CC[C@@H](C1)N2C (stereo partly drawn) | 1030 nM
52 | NCC(=O)Nc1cccc(Nc2nccc(-c3c(-c4cccc(NC(=O)c5ccccc5)c4)nn4ccccc34)n2)c1 | 430 nM
53 | N#Cc1ccc(-c2ccc(C(=O)NC3CCN(CCN4CCC(c5cn(CCO)c6ccccc56)CC4)CC3)cc2)cc1 | 760 nM
54 | CC(=O)Oc1c(C2CCN(CCCCNC(=O)c3ccc(-c4ccc(C#N)cc4)cc3)CC2)ccc2c1CCCC2 | 1130 nM
55 | OC(CNc1ccnc(Nc2cccc(Cl)c2)n1)c1cccc(F)c1 (stereo not drawn) | 970 nM
56 | Cc1cc(NCC2CCN(CC3CCCCC3)C2)nc(Nc2ccc(Cl)cc2)n1 (stereo not drawn) | 740 nM
57 | COc1ccccc1C1CCN(Cc2csc(NC(=O)c3ccc(-c4ccc(C(F)(F)F)cc4)cc3)n2)CC1 | 950 nM
58 | c1cc(CN2CCN(CCN3CCOCC3)CC2)cc(-c2csc(-c3nc4ccccc4[nH]3)c2)c1 | 450 nM
59 | CN1CCN(Cc2cccc(-c3ccc4c(Nc5cc(O)c(Cl)cc5F)ccnc4c3)c2)CC1 | 770 nM
60 | c1ccc(C(c2cccs2)N2CCN(Cc3ccc(OCCCN4CCCCC4)cc3)CC2)cc1 (stereo not drawn) | 1230 nM
61 | COc1cc2nc(N3CCC(CNC(=O)c4cc5ccccc5s4)CC3)nc(N)c2cc1OC | 290 nM
62 | Cc1cc(N2CC=CCC2)nc(/N=C(\N)Nc2ccc(Br)cc2)n1 | 690 nM
63 | CN(C(=O)C(C)(C)Oc1ccc(Cl)cc1)C1CCN(CCCCCNC(=O)/C=C/c2ccc(Cl)c(Cl)c2)CC1 | 920 nM
64 | COC(=O)Nc1cc(C(F)(F)F)ccc1N1CCC(CNS(=O)(=O)c2ccc(OC)cc2)CC1 | 250 nM
65 | c1ccc(CNc2cc(-c3ccccn3)nc(-c3ccccn3)n2)cc1 | 300 nM
66 | CN1CCCc2ccc(NC(=O)C=Cc3ccc(-c4ccc(F)cc4F)o3)cc2C1 | 520 nM
67 | Cc1cc(I)ccc1Nc1nc2nonc2nc1Nc1ccc(I)cc1C | 510 nM
68 | CCCCN(CCCC)CCCN(CCCN(CCCC)CCCC)c1cc(C)nc(Nc2ccc(Br)cc2)n1 | 130 nM
69 | COc1ccc(CCNC(C)Cc2ccc(C(=O)Nc3ccc(CC(C)NCCc4cccc(Cl)c4)cc3)cc2)cc1 (stereo not drawn) | 250 nM
70 | Cc1[nH]c2ccccc2c1C(=O)CSc1nn(-c2ccccc2)c(=S)s1 | 700 nM
71 | CCOc1ccc(-c2nc(NC(=O)COc3ccc(OC)cc3)sc2C)cc1 | 540 nM
72 | Cc1cccc(C)c1N1CCN(C2CCC(NC(=O)c3cc4ccccc4[nH]3)CC2)CC1 (stereo not drawn) | 600 nM
73 | N#Cc1ccc(CNCCCCCCNCc2ccc(C#N)c3ccccc23)c2ccccc12 | 610 nM
74 | COc1cccc2c(NN=Cc3ccc(Cl)cc3)ccnc12 | 810 nM
75 | COc1c(Br)cc(Br)cc1C(C)=O | 990 nM

Row | SMILES | IC50
76 | Cc1cc(O)c(CN(C)Cc2ccc3c(c2)OCCO3)cc1C(C)C | 670 nM
77 | O=C(NCCc1ccc(Cl)c(Cl)c1)[C@@H]1CCCN1C(=O)c1ccc(O)c(-c2cccc(C(F)(F)F)c2)c1 | 820 nM
78 | COc1ccc2nc(C)cc(NN=Cc3cccc(Cl)c3)c2c1 | 630 nM
79 | Cc1cccc(C)c1CNc1nc(N2CCOCC2)cc2c(C)c(C)[nH]c12 | 1240 nM
80 | CCOC(=O)c1cnc2c(OC)cc(OC)c(Cl)c2c1Nc1cccc(C)c1 | 840 nM
81 | O=C(NC1CCN(CC2(c3ccc(Cl)cc3)CCCCC2)CC1)c1ccn[nH]1 | 80 nM
82 | Clc1ccc(-c2ccc(CNCCCN3CCCC3)cc2)cc1 | 1060 nM
83 | O=C(/C=C/c1cc(C(F)(F)F)ccc1F)NC1CCC(CN2CCC(c3c[nH]c4ccccc34)CC2)CC1 (stereo not drawn) | 820 nM
84 | CCn1cc(C=C2Oc3c(ccc(O)c3CN3CCCCC3C)C2=O)c2ccccc21 (stereo not drawn) | 1020 nM
85 | CCC1(C)N=C(N)N=C(N)N1c1ccc(Cl)cc1 (stereo not drawn) | 160 nM
86 | CC(C)COc1ccc(Cl)cc1Cc1nc(-c2nc3ccc(CN4CCCC4)cc3[nH]2)co1 | 730 nM
87 | Cc1cccc(C(O)CNc2ccnc(Nc3cccc(-c4csc(C)n4)c3)n2)c1 (stereo not drawn) | 680 nM
88 | COc1ccc(CCNCCCCCCNCCc2ccc(-c3ccccc3)cc2)cc1OC | 960 nM
89 | Cc1ccc(Nc2nc(C)cc(N3CCN(c4ccccc4)CC3)n2)cc1 | 1530 nM
90 | COc1ccc2ncc(F)c(CCN3CCC4(CC3)COC(c3cc5c(cn3)OCCO5)=N4)c2n1 | 220 nM
91 | CCOC(=O)c1cc2c(CCN3C(=O)c4ccccc4C3=O)cn(C)c2cc1-c1ccncc1 | 580 nM
92 | CCCCCCn1c(Sc2ccc(C#N)c([N+](=O)[O-])c2)nnc1-c1ccccc1 | 770 nM
93 | CC(=O)Nc1cccc(C(=O)Nc2ccc(-c3cccc(-c4nc5ccc(F)cc5[nH]4)c3)cc2)c1 | 630 nM
94 | CCCCCCN1CCC(NCc2cccc(C#N)c2)CC1 | 780 nM
95 | COc1ccc(-c2ccc(NC(=O)c3ccc(Cl)cc3)cc2)cc1CN1CCCN(C)CC1 | 650 nM
96 | CCCc1cc(OC)c(C[C@H]2c3cc(O)c(Cl)cc3CCN2C)cc1OC | 580 nM
97 | O=C(NCCCN1CCCC1=O)c1cnc(N2CCC(Oc3ccccc3)CC2)c(Cl)c1 | 300 nM
98 | FC(F)(F)c1ccc2nc(-c3ccc(-c4cccc(CNCc5ccccc5)c4)cc3)[nH]c2c1 | 220 nM
